Reference: patent publication US4503056A, “1-(Pyridazinyl)pyrazoline derivatives” (Abbott Laboratories, priority 1982, dated 1985)

Columns and labels:
dermal Arthus reaction = assay: reverse passive Arthus reaction test; format: in vivo, Male Sprague-Dawley rats; settings: rats; 100 mg/kg oral, 30 min before intradermal Anti-B.S.A.; lesion measured 4 hours later; reduction in lesion area vs control
Experimental: Proc. 35, 774 (1976). Each compound was administered orally to a group of four animals.
The reverse passive Arthus reaction test in rats is conducted as follows: Male Sprague-Dawley rats weighing approximately 130-160 g. are used, 4 rats per group. All animals are injected intravenously with 0.5 ml. 0.075% Bovine Serum Albumin (B.S.A.)+2% Evans Blue solution. Each rat then receives an oral dose of drug; one drug is administered per group.
Thirty minutes subsequent to drug dosing, each animal is injected intradermally with 0.05 ml. 1.44% Anti-B.S.A. into the dorsal skin. Four hours later the animals are sacrificed, the dorsal skin reflexed, and the lesion excised. Two perpendicular diameters of each lesion are measured. The average diameters of the lesions from the treated groups are compared with the average diameters from the control group to determine any drug effect.

carrageenin pleurisy = assay: modification of the carrageenin pleurisy assay (Vinegar et al.); format: in vivo; settings: Dose 100 (dose unit not given); for % Inhibition, Volume exudates: reduction in accumulation of exudate volume; for % Inhibition, Cells: reduction in accumulation of leukocytes
Text: The anti-inflammatory activity of these compounds was established by using a modification of the carrageenin pleurisy assay described by Vinegar et al. Proc. Soc. Exp. Biol. Med. 143:711 (1973).

Structure (SMILES) | % Inhibition of lesion of dermal Arthus reaction (dermal Arthus reaction) | % Inhibition, Volume exudates (carrageenin pleurisy) [%] | % Inhibition, Cells (carrageenin pleurisy) [%]
NC1=NN(c2ccc(-c3ccccc3)nn2)CC1 [1-[6'-Phenylpyridazin-3'-yl]-3-aminopyrazol-2-ene] | 65% | 73 | 51
NC1=NN(c2ccc(-c3ccccc3Cl)nn2)CC1 [1-[6'-(ortho-chlorophenyl)-pyridazin-3'-yl]-3-aminopyrazol-2-ene] | 58% | – | –
CC1CC(N)=NN1c1ccc(-c2ccccc2)nn1 (stereo not drawn) [1-[6'-phenylpyridazin-3'-yl]-3-amino-5-methylpyrazol-2-ene] | 54% | – | –
CCCCC1C(=O)N(c2ccccc2)N(c2ccccc2)C1=O [Phenylbutazone, reference compound] | inactive | 59 | 13
NC1=NN(c2ccc(-c3cccc(Cl)c3)nn2)CC1 [1-[6'-(meta-chlorophenyl)pyridazin-3'-yl]-3-aminopyrazol-2-ene] | 51% | – | –
